Organism: Rattus norvegicus
Assay: DrugMatrix - Regimen: Daily Repeat
Format: toxicity, organism-based, Sprague-Dawley
Parameters: regimen Daily Repeat, gender Male, age 6-8 weeks
Conditions: in vivo, po, route oral GAVAGE, vehicle 100 % WATER; for ABSOLUTE BASOPHIL / ABSOLUTE EOSINOPHIL / ABSOLUTE LYMPHOCYTE / ABSOLUTE MONOCYTE / ABSOLUTE SEGMENTED NEUTROPHIL / BASOPHIL / EOSINOPHIL / ERYTHROCYTE COUNT / HEMATOCRIT / HEMOGLOBIN / LEUKOCYTE COUNT / LYMPHOCYTE / MEAN CORPUSCULAR HEMOGLOBIN / MEAN CORPUSCULAR HEMOGLOBIN CONCENTRATION / MEAN CORPUSCULAR VOLUME / MONOCYTE / NEUTROPHIL / NUCLEATED RED BLOOD CELLS / PLATELET COUNT: tissue Blood; for ALANINE AMINOTRANSFERASE / ALBUMIN / ALKALINE PHOSPHATASE / ASPARTATE AMINOTRANSFERASE / BLOOD UREA NITROGEN / CARBON DIOXIDE / CHLORIDE / CHOLESTEROL / CREATINE PHOSPHOKINASE / CREATININE / GLUCOSE / LACTATE DEHYDROGENASE / LIPASE / PHOSPHORUS / POTASSIUM / SODIUM / TOTAL BILIRUBIN / TOTAL PROTEIN / URIC ACID: tissue Plasma
[1] = 0 mg/kg, 72 h, dose level Control, time 3 day
[2] = 0 mg/kg, 120 h, dose level Control, time 5 day
[3] = 150 mg/kg, 72 h, dose level Low, time 3 day
[4] = 150 mg/kg, 120 h, dose level Low, time 5 day

In the case of `Cc1c(N(C)CS(=O)(=O)[O-])c(=O)n(-c2ccccc2)n1C.[Na+]` [DIPYRONE SODIUM], the “ABSOLUTE BASOPHIL” value [1] is reported as 0 CELLS/uL, the “ABSOLUTE EOSINOPHIL” value [1] is reported as 25 CELLS/uL and the “ABSOLUTE LYMPHOCYTE” value [1] is reported as 14357 CELLS/uL. For the same molecule, the “ABSOLUTE MONOCYTE” value [1] was 456.33 CELLS/uL, the “ABSOLUTE SEGMENTED NEUTROPHIL” value [1] was 1461.67 CELLS/uL and the BASOPHIL [1] was 0%. For the same molecule, the EOSINOPHIL [1] was 0.17%, the “ERYTHROCYTE COUNT” value [1] was 5.85 x10E6/uL and the HEMATOCRIT [1] was 37.62%. The HEMOGLOBIN [1] was 13.87 G/DL, the “LEUKOCYTE COUNT” value [1] was 16.3 x10E3/uL and the LYMPHOCYTE [1] was 88%. For the same molecule, the “MEAN CORPUSCULAR HEMOGLOBIN” value [1] was 23.68 pg, the “MEAN CORPUSCULAR HEMOGLOBIN CONCENTRATION” value [1] was 36.88 G/DL and the “MEAN CORPUSCULAR VOLUME” value [1] was 64.23 fL. The MONOCYTE [1] was 2.83%, the NEUTROPHIL [1] was 9% and the “NUCLEATED RED BLOOD CELLS” value [1] was 0 /100WBC. The “PLATELET COUNT” value [1] was 1125.33 x10E3/uL, the “ALANINE AMINOTRANSFERASE” value [1] was 49.67 u/L and the ALBUMIN [1] was 4.23 G/DL. The “ALKALINE PHOSPHATASE” value [1] was 400.83 u/L, the “ASPARTATE AMINOTRANSFERASE” value [1] was 89.17 u/L and the “BLOOD UREA NITROGEN” value [1] was 16 mg/dL. The “CARBON DIOXIDE” value [1] was 31.83 mmol/L, the CHLORIDE [1] was 99 MEQ/L and the CHOLESTEROL [1] was 76 mg/dL. The “CREATINE PHOSPHOKINASE” value [1] was 777.67 u/L, the CREATININE [1] was 0.22 mg/dL and the GLUCOSE [1] was 158.33 mg/dL. For the same molecule, the “LACTATE DEHYDROGENASE” value [1] was 186.17 u/L, the LIPASE [1] was 9.33 u/L and the PHOSPHORUS [1] was 12.95 mg/dL. For the same molecule, the POTASSIUM [1] was 7.01 MEQ/L, the SODIUM [1] was 141.53 MEQ/L and the “TOTAL BILIRUBIN” value [1] was 0.18 mg/dL. For the same molecule, the “TOTAL PROTEIN” value [1] was 6.08 G/DL, the “URIC ACID” value [1] was 1.77 mg/dL and the “ABSOLUTE BASOPHIL” value [2] was 0 CELLS/uL. The “ABSOLUTE EOSINOPHIL” value [2] was 0 CELLS/uL, the “ABSOLUTE LYMPHOCYTE” value [2] was 8994.5 CELLS/uL and the “ABSOLUTE MONOCYTE” value [2] was 122.33 CELLS/uL. For the same molecule, the “ABSOLUTE SEGMENTED NEUTROPHIL” value [2] was 666.5 CELLS/uL, the BASOPHIL [2] was 0% and the EOSINOPHIL [2] was 0%. The “ERYTHROCYTE COUNT” value [2] was 5.74 x10E6/uL, the HEMATOCRIT [2] was 35.17% and the HEMOGLOBIN [2] was 13.28 G/DL. For the same molecule, the “LEUKOCYTE COUNT” value [2] was 9.78 x10E3/uL, the LYMPHOCYTE [2] was 92.33% and the “MEAN CORPUSCULAR HEMOGLOBIN” value [2] was 23.15 pg. For the same molecule, the “MEAN CORPUSCULAR HEMOGLOBIN CONCENTRATION” value [2] was 37.8 G/DL, the “MEAN CORPUSCULAR VOLUME” value [2] was 61.27 fL and the MONOCYTE [2] was 1.33%. The NEUTROPHIL [2] was 6.33%, the “NUCLEATED RED BLOOD CELLS” value [2] was 0 /100WBC and the “PLATELET COUNT” value [2] was 1117 x10E3/uL. The “ALANINE AMINOTRANSFERASE” value [2] was 47.83 u/L, the ALBUMIN [2] was 4.33 G/DL and the “ALKALINE PHOSPHATASE” value [2] was 414.5 u/L. The “ASPARTATE AMINOTRANSFERASE” value [2] was 77.5 u/L, the “BLOOD UREA NITROGEN” value [2] was 17 mg/dL and the “CARBON DIOXIDE” value [2] was 32.33 mmol/L. For the same molecule, the CHLORIDE [2] was 99.33 MEQ/L, the CHOLESTEROL [2] was 76.33 mg/dL and the “CREATINE PHOSPHOKINASE” value [2] was 363.67 u/L. The CREATININE [2] was 0.25 mg/dL, the GLUCOSE [2] was 173.5 mg/dL and the “LACTATE DEHYDROGENASE” value [2] was 129.33 u/L. It also gave an LIPASE [2] of 9.17 u/L, a PHOSPHORUS [2] of 11.52 mg/dL and a POTASSIUM [2] of 5.73 MEQ/L. For the same molecule, the SODIUM [2] was 143.85 MEQ/L, the “TOTAL BILIRUBIN” value [2] was 0.2 mg/dL and the “TOTAL PROTEIN” value [2] was 6.43 G/DL. The “URIC ACID” value [2] was 0.97 mg/dL, the “ABSOLUTE BASOPHIL” value [3] was 0 CELLS/uL and the “ABSOLUTE EOSINOPHIL” value [3] was 55.67 CELLS/uL. The “ABSOLUTE LYMPHOCYTE” value [3] was 16817.67 CELLS/uL, the “ABSOLUTE MONOCYTE” value [3] was 567 CELLS/uL and the “ABSOLUTE SEGMENTED NEUTROPHIL” value [3] was 1026.33 CELLS/uL. The BASOPHIL [3] was 0%, the EOSINOPHIL [3] was 0.33% and the “ERYTHROCYTE COUNT” value [3] was 5.75 x10E6/uL. The HEMATOCRIT [3] was 36.5%, the HEMOGLOBIN [3] was 13.47 G/DL and the “LEUKOCYTE COUNT” value [3] was 18.47 x10E3/uL. The LYMPHOCYTE [3] was 91%, the “MEAN CORPUSCULAR HEMOGLOBIN” value [3] was 23.47 pg and the “MEAN CORPUSCULAR HEMOGLOBIN CONCENTRATION” value [3] was 36.9 G/DL. For the same molecule, the “MEAN CORPUSCULAR VOLUME” value [3] was 63.5 fL, the MONOCYTE [3] was 3% and the NEUTROPHIL [3] was 5.67%. For the same molecule, the “NUCLEATED RED BLOOD CELLS” value [3] was 0 /100WBC, the “PLATELET COUNT” value [3] was 1215.67 x10E3/uL and the “ALANINE AMINOTRANSFERASE” value [3] was 44.67 u/L. For the same molecule, the ALBUMIN [3] was 4.4 G/DL, the “ALKALINE PHOSPHATASE” value [3] was 361 u/L and the “ASPARTATE AMINOTRANSFERASE” value [3] was 86 u/L. For the same molecule, the “BLOOD UREA NITROGEN” value [3] was 16 mg/dL, the “CARBON DIOXIDE” value [3] was 33 mmol/L and the CHLORIDE [3] was 100.33 MEQ/L. The CHOLESTEROL [3] was 87 mg/dL, the “CREATINE PHOSPHOKINASE” value [3] was 700 u/L and the CREATININE [3] was 0.19 mg/dL. The GLUCOSE [3] was 142.33 mg/dL, the “LACTATE DEHYDROGENASE” value [3] was 212 u/L and the LIPASE [3] was 9.33 u/L. It also gave a PHOSPHORUS [3] of 13.33 mg/dL, a POTASSIUM [3] of 6.6 MEQ/L and an SODIUM [3] of 143.13 MEQ/L. For the same molecule, the “TOTAL BILIRUBIN” value [3] was 0.2 mg/dL, the “TOTAL PROTEIN” value [3] was 6.2 G/DL and the “URIC ACID” value [3] was 1.67 mg/dL. The “ABSOLUTE BASOPHIL” value [4] was 0 CELLS/uL, the “ABSOLUTE EOSINOPHIL” value [4] was 0 CELLS/uL and the “ABSOLUTE LYMPHOCYTE” value [4] was 8863.67 CELLS/uL. For the same molecule, the “ABSOLUTE MONOCYTE” value [4] was 61.67 CELLS/uL, the “ABSOLUTE SEGMENTED NEUTROPHIL” value [4] was 541.33 CELLS/uL and the BASOPHIL [4] was 0%. The EOSINOPHIL [4] was 0%, the “ERYTHROCYTE COUNT” value [4] was 5.85 x10E6/uL and the HEMATOCRIT [4] was 36.3%. The HEMOGLOBIN [4] was 13.67 G/DL, the “LEUKOCYTE COUNT” value [4] was 9.47 x10E3/uL and the LYMPHOCYTE [4] was 93.33%. For the same molecule, the “MEAN CORPUSCULAR HEMOGLOBIN” value [4] was 23.37 pg, the “MEAN CORPUSCULAR HEMOGLOBIN CONCENTRATION” value [4] was 37.63 G/DL and the “MEAN CORPUSCULAR VOLUME” value [4] was 62 fL. The MONOCYTE [4] was 0.67%, the NEUTROPHIL [4] was 6% and the “NUCLEATED RED BLOOD CELLS” value [4] was 0 /100WBC. For the same molecule, the “PLATELET COUNT” value [4] was 1342 x10E3/uL, the “ALANINE AMINOTRANSFERASE” value [4] was 52.67 u/L and the ALBUMIN [4] was 4.23 G/DL. For the same molecule, the “ALKALINE PHOSPHATASE” value [4] was 379 u/L, the “ASPARTATE AMINOTRANSFERASE” value [4] was 72.33 u/L and the “BLOOD UREA NITROGEN” value [4] was 16.33 mg/dL. For the same molecule, the “CARBON DIOXIDE” value [4] was 34.67 mmol/L, the CHLORIDE [4] was 100.67 MEQ/L and the CHOLESTEROL [4] was 67 mg/dL. For the same molecule, the “CREATINE PHOSPHOKINASE” value [4] was 175.33 u/L, the CREATININE [4] was 0.2 mg/dL and the GLUCOSE [4] was 135 mg/dL. For the same molecule, the “LACTATE DEHYDROGENASE” value [4] was 123 u/L, the LIPASE [4] was 8.67 u/L and the PHOSPHORUS [4] was 12.43 mg/dL. The POTASSIUM [4] was 6.37 MEQ/L, the SODIUM [4] was 145.67 MEQ/L and the “TOTAL BILIRUBIN” value [4] was 0.17 mg/dL. For the same molecule, the “TOTAL PROTEIN” value [4] was 6.17 G/DL and the “URIC ACID” value [4] was 1.3 mg/dL.

— ChEMBL document CHEMBL3885881, “DrugMatrix”
